Reference: patent publication US8115014B2, “Ethynylindole compounds” (ONO Pharmaceuticals, Co., Ltd., priority 2008, dated 2012)

Key:
human cysLT1 receptor = target: T1, human cysLT1 receptor (Homo sapiens, UniProt Q9Y271); test: Effects of compounds on LTD4-induced increase in intracellular calcium levels, CHO cells expressing the human cysLT1 receptor; type: cell-based; settings: 100 nM LTD4, compound applied 30 minutes prior, read-out: IC50 (50% inhibitory concentration), LTD4-induced intracellular calcium influx
T1 construct: expressed in transfected cells; host or cells: Chinese hamster ovary (CHO) cells
T1 sequence (Q9Y271 1-337): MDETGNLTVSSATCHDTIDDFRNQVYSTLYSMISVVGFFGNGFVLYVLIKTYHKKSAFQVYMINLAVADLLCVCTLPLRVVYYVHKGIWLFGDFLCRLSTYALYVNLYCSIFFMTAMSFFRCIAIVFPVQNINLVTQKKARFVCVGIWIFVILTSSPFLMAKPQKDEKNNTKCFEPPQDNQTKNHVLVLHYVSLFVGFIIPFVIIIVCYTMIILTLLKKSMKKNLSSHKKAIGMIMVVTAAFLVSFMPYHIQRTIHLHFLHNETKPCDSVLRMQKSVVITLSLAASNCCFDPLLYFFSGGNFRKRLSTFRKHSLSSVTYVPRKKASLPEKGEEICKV
Procedure: (§1) Chinese hamster ovary (CHO) cells expressing the human cysLT1 receptor were seeded at a density of 0.4×10^5 cells/well into a 96-well plate and cultured in an F-12 medium at 37° C. in the presence of 5% CO2 for 24 hours. The cells were incubated in the culture medium containing 7.5 μM Fura2-AM, 20 mM 2-[4-(2-hydroxyethyl)-1-piperazinyl]ethanesulfonic acid (HEPES) and 2.5 mM probenecid, at 37° C. for about 60 minutes. The Fura2-AM-loaded cells were washed once with assay buffer (Hank's buffer containing 20 mM HEPES), and the LTD4-induced intracellular calcium influx was measured using a FDSS2000 (manufactured by Hamamatsu Photonics K.K.). The compounds of the present invention were applied 30 minutes prior to LTD4 stimulation, and time-course changes of the response provoked by 100 nM of LTD4 was measured over 150 seconds.

human cysLT2 receptor = target: T2, human cysLT2 receptor (Homo sapiens, UniProt Q9NS75); test: Effects of compounds on LTD4-induced increases in intracellular calcium levels, HEK293 cells expressing the human cysLT2 receptor; type: cell-based; settings: 100 nM LTD4, compound applied 30 minutes prior, read-out: IC50 (50% inhibitory concentration), LTD4-induced intracellular calcium influx
T2 construct: expressed in transfected cells; host or cells: HEK293 cells
T2 sequence (Q9NS75 1-346): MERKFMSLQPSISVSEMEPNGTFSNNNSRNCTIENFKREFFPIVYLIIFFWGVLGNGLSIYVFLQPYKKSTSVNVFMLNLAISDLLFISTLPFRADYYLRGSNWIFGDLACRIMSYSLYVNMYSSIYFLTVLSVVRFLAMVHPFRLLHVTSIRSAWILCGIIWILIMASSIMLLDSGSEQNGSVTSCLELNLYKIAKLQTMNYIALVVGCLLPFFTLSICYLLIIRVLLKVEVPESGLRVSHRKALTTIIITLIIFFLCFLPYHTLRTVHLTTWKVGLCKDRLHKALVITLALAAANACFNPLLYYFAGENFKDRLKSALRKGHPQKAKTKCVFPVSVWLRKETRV
Procedure: as §1, with “The” for “Chinese hamster ovary (CHO) cells expressing the human cysLT1 receptor were seeded at a density of 0.4×10^5 cells/well into a 96-well plate and cultured in an F-12 medium at 37° C. in the presence of 5% CO2 for 24 hours. The”

SMILES	IC50 (human cysLT1 receptor) [nM]	IC50 (human cysLT2 receptor) [nM]
Cc1c(CCCC(=O)O)c2cccc(C#Cc3ccc(OCCCCc4cc(F)c(F)c(F)c4F)cc3)c2n1CC(=O)O [Example 11, 4-[1-(carboxymethyl)-2-methyl-7-({4-[4-(2,3,4,5-tetrafluorophenyl)butoxy]phenyl}ethynyl)-1H-indol-3-yl]butanoic Acid]	0.21	0.77
Cc1c(F)cccc1CCCCOc1ccc(C#Cc2cccc3c(CC4(CC(=O)O)CC4)c(C)n(CC(=O)O)c23)cc1 [Example 21 (2), [3-{[1-(carboxymethyl)cyclopropyl]methyl}-7-({4-[4-(3-fluoro-2-methylphenyl)butoxy]phenyl}ethynyl)-2-methyl-1H-indol-1-yl]acetic Acid]	0.24	2.9
Cc1c(Cl)cccc1CCCCOc1ccc(C#Cc2cccc3c(CC4(CC(=O)O)CC4)c(C)n(CC(=O)O)c23)cc1 [Example 21 (1), (1-{[1-(carboxymethyl)-7-({4-[4-(3-chloro-2-methylphenyl)butoxy]phenyl}ethynyl)-2-methyl-1H-indol-3-yl]methyl}cyclopropyl)acetic Acid]	0.16	2.1
Cc1c(CCCC(=O)O)c2cccc(C#Cc3ccc(OCCCCc4c(F)c(F)c(F)c(F)c4F)cc3)c2n1CCCC(=O)O [Example 9, 4,4′-[2-methyl-7-({4-[4-(pentafluorophenyl)butoxy]phenyl}ethynyl)-1H-indole-1,3-diyl]dibutanoic Acid]	1.1	2.8
